Like-named read-outs stand apart in the source and are kept apart here.
What was measured:
Assay in all cases: KinomeScan kinase panel, single concentration 10 µM
Format in all cases: binding
[1] = biological target: T1, KinomeScan kinase panel (Homo sapiens, UniProt O75914); conditions: PAK3, 10 µM; read-out: score (%)
T1 construct: purchased DiscoveRx (KinomeScan)

[2] = biological target: T2, KinomeScan kinase panel (Homo sapiens, UniProt P00519, T315I); conditions: 10 µM, read-out: score (%)
T2 construct: purchased DiscoveRx (KinomeScan)

[3] = biological target: T3, KinomeScan kinase panel (Homo sapiens, UniProt P27361); conditions: ERK1, 10 µM; read-out: score (%)
T3 construct: purchased DiscoveRx (KinomeScan)
T3 sequence (P27361 whole entry): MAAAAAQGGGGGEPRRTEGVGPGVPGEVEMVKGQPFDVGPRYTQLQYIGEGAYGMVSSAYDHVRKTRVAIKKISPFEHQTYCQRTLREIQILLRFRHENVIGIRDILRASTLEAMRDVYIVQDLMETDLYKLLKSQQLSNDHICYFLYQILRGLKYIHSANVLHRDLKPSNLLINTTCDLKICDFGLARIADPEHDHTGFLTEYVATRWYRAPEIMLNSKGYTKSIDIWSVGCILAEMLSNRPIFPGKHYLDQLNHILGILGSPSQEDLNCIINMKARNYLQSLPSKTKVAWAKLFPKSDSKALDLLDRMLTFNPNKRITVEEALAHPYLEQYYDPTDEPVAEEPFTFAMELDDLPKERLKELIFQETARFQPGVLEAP

[4] = biological target: T4, KinomeScan kinase panel (Homo sapiens, UniProt P42681); conditions: kinase TXK; 10 µM; read-out: score (%)
T4 construct: purchased DiscoveRx (KinomeScan)
T4 sequence (P42681 1-527): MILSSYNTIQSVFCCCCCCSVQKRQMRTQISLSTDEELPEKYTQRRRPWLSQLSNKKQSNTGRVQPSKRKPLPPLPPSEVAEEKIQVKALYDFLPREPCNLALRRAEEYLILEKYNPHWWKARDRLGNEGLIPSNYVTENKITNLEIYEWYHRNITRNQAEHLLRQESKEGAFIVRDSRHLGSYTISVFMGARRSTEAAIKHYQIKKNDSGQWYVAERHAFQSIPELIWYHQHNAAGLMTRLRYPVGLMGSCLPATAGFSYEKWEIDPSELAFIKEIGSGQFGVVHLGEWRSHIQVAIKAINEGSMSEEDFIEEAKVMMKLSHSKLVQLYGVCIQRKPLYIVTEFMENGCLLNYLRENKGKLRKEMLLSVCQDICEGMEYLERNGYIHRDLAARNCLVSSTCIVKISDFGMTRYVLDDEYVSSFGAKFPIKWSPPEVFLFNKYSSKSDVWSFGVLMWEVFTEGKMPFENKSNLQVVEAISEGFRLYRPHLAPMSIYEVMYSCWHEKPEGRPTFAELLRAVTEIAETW

[5] = biological target: T5, KinomeScan kinase panel (Homo sapiens, UniProt P50750); conditions: CDK9, 10 µM; read-out: score (%)
T5 construct: purchased DiscoveRx (KinomeScan)
T5 sequence (P50750 whole entry): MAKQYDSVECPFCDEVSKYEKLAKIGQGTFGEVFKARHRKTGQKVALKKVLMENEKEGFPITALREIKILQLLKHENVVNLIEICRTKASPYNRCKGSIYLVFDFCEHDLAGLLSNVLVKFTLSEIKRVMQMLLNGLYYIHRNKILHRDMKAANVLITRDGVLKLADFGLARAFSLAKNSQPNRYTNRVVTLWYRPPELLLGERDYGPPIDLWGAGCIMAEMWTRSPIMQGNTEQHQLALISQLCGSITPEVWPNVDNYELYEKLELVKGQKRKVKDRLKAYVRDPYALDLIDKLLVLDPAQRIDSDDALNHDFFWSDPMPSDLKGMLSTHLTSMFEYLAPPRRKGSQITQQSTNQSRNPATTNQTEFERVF

[6] = biological target: T6, KinomeScan kinase panel (Homo sapiens, UniProt P68400); conditions: CSNK2A1, 10 µM; read-out: score (%)
T6 construct: purchased DiscoveRx (KinomeScan)
T6 sequence (P68400 whole entry): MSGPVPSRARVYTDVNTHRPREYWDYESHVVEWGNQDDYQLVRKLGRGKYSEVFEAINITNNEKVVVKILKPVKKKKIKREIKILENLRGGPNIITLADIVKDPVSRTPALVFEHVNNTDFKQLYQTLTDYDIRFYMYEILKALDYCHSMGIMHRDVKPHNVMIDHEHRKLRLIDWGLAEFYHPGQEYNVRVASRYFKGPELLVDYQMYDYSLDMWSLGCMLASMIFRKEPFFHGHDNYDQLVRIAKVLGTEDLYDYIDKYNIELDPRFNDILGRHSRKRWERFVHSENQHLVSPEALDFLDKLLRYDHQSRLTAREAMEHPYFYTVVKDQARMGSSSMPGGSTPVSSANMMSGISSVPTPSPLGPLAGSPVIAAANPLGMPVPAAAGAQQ

[7] = biological target: T7, KinomeScan kinase panel (Homo sapiens, UniProt Q05655); conditions: 10 µM, read-out: score (%)
T7 construct: purchased DiscoveRx (KinomeScan)
T7 sequence (Q05655 whole entry): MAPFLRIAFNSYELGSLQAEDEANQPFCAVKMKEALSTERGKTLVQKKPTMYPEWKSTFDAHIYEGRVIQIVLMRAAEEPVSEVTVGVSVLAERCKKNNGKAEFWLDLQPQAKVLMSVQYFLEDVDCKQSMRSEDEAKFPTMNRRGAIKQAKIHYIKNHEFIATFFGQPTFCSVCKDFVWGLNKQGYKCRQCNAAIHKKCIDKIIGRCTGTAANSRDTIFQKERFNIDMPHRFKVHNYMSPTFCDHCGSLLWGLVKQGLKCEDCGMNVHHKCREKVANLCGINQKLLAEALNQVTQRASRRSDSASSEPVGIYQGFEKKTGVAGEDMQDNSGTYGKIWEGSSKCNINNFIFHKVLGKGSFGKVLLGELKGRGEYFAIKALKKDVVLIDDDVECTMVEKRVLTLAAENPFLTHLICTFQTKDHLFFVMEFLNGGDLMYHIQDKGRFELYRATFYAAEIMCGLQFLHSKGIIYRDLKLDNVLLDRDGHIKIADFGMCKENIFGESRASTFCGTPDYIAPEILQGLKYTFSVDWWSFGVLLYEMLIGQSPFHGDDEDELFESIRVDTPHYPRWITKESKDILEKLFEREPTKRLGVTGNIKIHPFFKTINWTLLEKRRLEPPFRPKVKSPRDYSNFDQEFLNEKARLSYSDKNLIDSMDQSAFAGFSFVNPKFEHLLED

[8] = biological target: T8, KinomeScan kinase panel (Homo sapiens, UniProt Q12852); conditions: DLK, 10 µM
T8 construct: purchased DiscoveRx (KinomeScan)
T8 sequence (Q12852 1-859): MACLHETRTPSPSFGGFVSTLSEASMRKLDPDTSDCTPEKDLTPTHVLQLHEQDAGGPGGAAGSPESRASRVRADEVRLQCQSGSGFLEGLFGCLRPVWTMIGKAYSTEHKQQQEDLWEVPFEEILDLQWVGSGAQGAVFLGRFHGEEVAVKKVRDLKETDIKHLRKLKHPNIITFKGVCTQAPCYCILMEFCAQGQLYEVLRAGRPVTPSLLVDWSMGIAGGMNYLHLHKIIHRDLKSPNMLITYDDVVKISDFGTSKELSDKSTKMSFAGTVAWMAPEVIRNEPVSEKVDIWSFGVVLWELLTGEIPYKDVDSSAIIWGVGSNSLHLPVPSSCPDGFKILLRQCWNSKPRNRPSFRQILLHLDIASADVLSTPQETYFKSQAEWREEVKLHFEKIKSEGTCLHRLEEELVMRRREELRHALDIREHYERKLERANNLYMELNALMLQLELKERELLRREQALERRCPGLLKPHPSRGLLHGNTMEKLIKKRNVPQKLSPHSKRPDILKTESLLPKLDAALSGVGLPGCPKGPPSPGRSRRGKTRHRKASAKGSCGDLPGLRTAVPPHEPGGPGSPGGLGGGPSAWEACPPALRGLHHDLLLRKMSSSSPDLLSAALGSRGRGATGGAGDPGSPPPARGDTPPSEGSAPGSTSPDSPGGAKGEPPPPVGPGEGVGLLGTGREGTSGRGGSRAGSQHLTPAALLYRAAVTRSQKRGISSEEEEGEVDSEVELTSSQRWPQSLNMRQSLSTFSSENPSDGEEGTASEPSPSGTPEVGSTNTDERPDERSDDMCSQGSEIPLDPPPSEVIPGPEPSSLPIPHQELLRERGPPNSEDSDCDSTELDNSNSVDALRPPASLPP

[9] = biological target: T9, KinomeScan kinase panel (Homo sapiens, UniProt Q12866); conditions: MERTK, 10 µM; read-out: score (%)
T9 construct: purchased DiscoveRx (KinomeScan)
T9 sequence (Q12866 21-999): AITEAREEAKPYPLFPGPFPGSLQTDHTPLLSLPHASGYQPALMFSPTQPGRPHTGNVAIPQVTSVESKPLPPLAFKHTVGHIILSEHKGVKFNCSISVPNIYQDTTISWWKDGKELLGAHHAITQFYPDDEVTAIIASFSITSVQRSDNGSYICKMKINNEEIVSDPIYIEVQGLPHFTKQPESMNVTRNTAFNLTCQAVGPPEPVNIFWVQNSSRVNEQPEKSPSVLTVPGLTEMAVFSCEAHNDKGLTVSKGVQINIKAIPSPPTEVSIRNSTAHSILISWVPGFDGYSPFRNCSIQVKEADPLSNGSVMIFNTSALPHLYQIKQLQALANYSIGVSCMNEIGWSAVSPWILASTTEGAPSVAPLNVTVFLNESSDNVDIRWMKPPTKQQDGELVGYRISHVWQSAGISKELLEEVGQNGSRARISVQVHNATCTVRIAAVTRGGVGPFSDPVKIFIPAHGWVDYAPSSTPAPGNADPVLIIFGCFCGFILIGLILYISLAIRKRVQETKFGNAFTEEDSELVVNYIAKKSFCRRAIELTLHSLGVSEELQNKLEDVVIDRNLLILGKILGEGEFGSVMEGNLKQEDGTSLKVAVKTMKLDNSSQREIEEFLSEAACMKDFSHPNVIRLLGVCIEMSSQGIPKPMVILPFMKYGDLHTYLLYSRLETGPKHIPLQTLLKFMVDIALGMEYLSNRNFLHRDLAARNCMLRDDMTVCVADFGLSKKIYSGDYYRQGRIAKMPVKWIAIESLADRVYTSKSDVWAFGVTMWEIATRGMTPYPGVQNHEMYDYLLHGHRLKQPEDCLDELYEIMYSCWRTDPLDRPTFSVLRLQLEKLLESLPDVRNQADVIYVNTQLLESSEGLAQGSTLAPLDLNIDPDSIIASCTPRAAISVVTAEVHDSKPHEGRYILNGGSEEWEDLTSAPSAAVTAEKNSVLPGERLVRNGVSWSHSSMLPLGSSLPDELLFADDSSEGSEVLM

T1 sequence (O75914 whole entry): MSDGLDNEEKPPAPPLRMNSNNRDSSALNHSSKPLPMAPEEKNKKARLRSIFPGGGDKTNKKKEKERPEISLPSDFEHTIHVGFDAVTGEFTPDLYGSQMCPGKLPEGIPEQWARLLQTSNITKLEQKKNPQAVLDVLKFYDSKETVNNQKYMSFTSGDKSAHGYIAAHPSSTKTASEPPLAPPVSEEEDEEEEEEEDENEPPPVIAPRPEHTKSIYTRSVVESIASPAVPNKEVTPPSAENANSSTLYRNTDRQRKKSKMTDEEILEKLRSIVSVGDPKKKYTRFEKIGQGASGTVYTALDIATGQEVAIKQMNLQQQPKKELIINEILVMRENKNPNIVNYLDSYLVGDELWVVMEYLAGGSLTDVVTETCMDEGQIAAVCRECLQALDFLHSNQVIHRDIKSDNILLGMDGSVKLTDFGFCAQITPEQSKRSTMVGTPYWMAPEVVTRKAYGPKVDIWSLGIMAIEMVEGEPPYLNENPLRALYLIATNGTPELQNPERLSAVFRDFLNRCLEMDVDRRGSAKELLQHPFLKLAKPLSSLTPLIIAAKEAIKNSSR

Row | Structure (SMILES) | remaining binding at 10 µM [1] [%] | remaining binding at 10 µM ([2]; ABL1(T315I)) [%] | remaining binding at 10 µM [3] [%] | remaining binding at 10 µM [4] [%] | remaining binding at 10 µM [5] [%] | remaining binding at 10 µM [6] [%] | remaining binding at 10 µM ([7]; PRKCD) [%] | score (%) [8] [%] | remaining binding at 10 µM [9] [%] | remaining binding at 10 µM ([2]; ABL1(T315I)-nonphosphorylated) [%] | remaining binding at 10 µM ([2]; ABL1(T315I)-phosphorylated) [%] | remaining binding at 10 µM ([7]; kinase PRKCD) [%]
1 | CCN1CCN(Cc2ccc(NC(=O)c3ccc(C)c(NC(=O)c4cncc(-c5cccs5)c4)c3)cc2C(F)(F)F)CC1 [ALW-II-41-27] | > 30 | 0.7 | > 30 | 1.8 | > 30 | > 30 | 1.2 | 28 | > 30 |  |  | 
2 | CCN1CCN(Cc2ccc(NC(=O)c3ccc(C)c(C#Cc4cccnc4)c3)cc2C(F)(F)F)CC1 [XMD15-44] | 3.3 |  | > 30 | 0.3 | > 30 | > 30 |  | 9.8 | 5.2 | 2.8 | 2.6 | 39
3 | CCN1CCN(Cc2ccc(NC(=O)c3ccc(C)c(/C=C/c4cnc5[nH]ccc5c4Cl)c3)cc2C(F)(F)F)CC1 [HG-6-63-01, (E)-3-(2-(4-chloro-1H-pyrrolo[2,3-b]pyridin-5-yl)vinyl)-N-(4-((4-ethylpiperazin-1-yl)methyl)-3-(trifluoromethyl)phenyl)-4-methylbenzamide] | 30 | 0 | > 30 | 0.9 | > 30 | 15 | > 30 | 5.5 | > 30 |  |  | 
